According to patent US20250082624A1, “METHODS OF TREATING COGNITIVE IMPAIRMENT” (NeuroTherapia, Inc., priority 2023, published 2025):
Where two headings read alike, the source gives them in different places.

Assay: Phase 1b MAD plasma pharmacokinetics, non-compartmental analysis
Assay type: in vivo, human
Settings: human, plasma, po
Excerpt: Methods: All study procedures were approved by the IRB, and informed consent was obtained. Three cohorts of volunteers 45-80 years of age with well-controlled comorbidities (NOAD) and one cohort of AD patients diagnosed with cognitive impairment consistent with prodromal AD per International Working Group criteria or mild AD per National Institute on Aging—Alzheimer's Association criteria (n=6 active, 2 placebo per cohort) were enrolled. Participants were admitted to the study site for the duration of the dosing and returned 7-12 days after the last dose for a safety visit. Participants received NTRX-07 (10, 30, or 90 mg) or a placebo in a double-blinded randomization orally once daily for seven days. Subjects were assessed for changes in vital signs, including maneuvers to induce lightheadedness, electrocardiograms, 24-hour electroencephalograms (EEG), and safety laboratory studies. The second cohort returned and received a single repeat dose after a standard high-fat meal. The AD cohort also underwent cognitive testing and had blood samples for biomarkers drawn. Subjects had PK sampling done after the first and final dose of the study drug. An independent safety review committee conducted a blinded safety review of adverse events and plasma levels between each cohort.
All subjects had PK sampling done after the first and final dose of the study drug.
(§1) Raw bioanalytical data were received from Nuvisan following analysis of plasma samples from each of four cohorts. PK parameters were calculated by noncompartmental analysis using standard equations. Specifically, area under the plasma concentration versus time curve (AUC) was calculated using the trapezoid rule. Maximal plasma concentration (Cmax) and time of maximal plasma concentration (Tmax) were taken directly from the data. Clearance divided by bioavailability (Cl/F) was calculated as the dose divided by the AUC. Apparent volume of distribution over bioavailability (Vd/F) was calculated as dose divided by Cmax.
With oral administration of the dose every 24 hours for 7 days, blood samples were taken over a 24-hour interval on Days 1 and 7 and before and after dosing on Day 3.
as §1, with “on Oct. 27, 2022. […]” for “following analysis of plasma samples from each of four cohorts. PK parameters were calculated by noncompartmental analysis using standard equations.”
as §1, with “on Nov. 24, 2022. […]” for “following analysis of plasma samples from each of four cohorts. PK parameters were calculated by noncompartmental analysis using standard equations.”
as §1, with “on Dec. 19, 2022. […]” for “following analysis of plasma samples from each of four cohorts. PK parameters were calculated by noncompartmental analysis using standard equations.”
Raw bioanalytical data were received from Nuvisan on Jun. 30, 2023. […] Specifically, area under the plasma concentration versus time curve (AUC) was calculated using the trapezoid rule. Maximal plasma concentration (Cmax) and time of maximal plasma concentration (Tmax) were taken directly from the data. […]

CC1(Cc2ccccc2)COc2cc(C(=O)N3CCCCC3)ccc21 (centres unmarked) [NTRX-07, 3-benzyl-3-methyl-2,3-dihydrobenzofuran-6-carboxylic acid-piperidine amide]
Cmax (10 mg, Table 10: Cohort A, 10 mg QD oral, Day 7, mean ± S.D., read-out: Cmax): 37.7 ± 15.9 ng/mL
Tmax (10 mg, Table 10: Cohort A, 10 mg QD oral, Day 7, mean ± S.D., read-out: Tmax): 48 ± 18 min
Vd/F (10 mg, Table 10: Cohort A, 10 mg QD oral, Day 7, mean ± S.D., read-out: Vd/F): 307 ± 126 L
Tmax (10 mg, Table 19 (interim): Cohort A, 40 mg SDD (10 mg NTRX-07) QD oral, Day 1, individual subjects, read-out: Tmax): 30 min
AUC over 24 h (AUC0-24) (10 mg, Table 19 (interim): Cohort A, 40 mg SDD (10 mg NTRX-07) QD oral, Day 1, mean ± S.D.): 93 ± 0.9 ng·h/mL
Cmax (10 mg, Table 19 (interim): Cohort A, 40 mg SDD (10 mg NTRX-07) QD oral, Day 1, mean ± S.D., read-out: Cmax): 35.6 ± 12.8 ng/mL
Tmax (10 mg, Table 19 (interim): Cohort A, 40 mg SDD (10 mg NTRX-07) QD oral, Day 1, mean ± S.D., read-out: Tmax): 42 ± 18 min
Vd/F (10 mg, Table 19 (interim): Cohort A, 40 mg SDD (10 mg NTRX-07) QD oral, Day 1, mean ± S.D., read-out: Vd/F): 1280 ± 544 L
Tmax (10 mg, Table 20 (interim): Cohort A, 40 mg SDD (10 mg NTRX-07) QD oral, Day 7, individual subjects, read-out: Tmax): 30 min
AUC over 24 h (AUC0-24) (10 mg, Table 20 (interim): Cohort A, 40 mg SDD (10 mg NTRX-07) QD oral, Day 7, mean ± S.D.): 94.4 ± 66.8 ng·h/mL
Cmax (10 mg, Table 20 (interim): Cohort A, 40 mg SDD (10 mg NTRX-07) QD oral, Day 7, mean ± S.D., read-out: Cmax): 37.7 ± 15.9 ng/mL
Tmax (10 mg, Table 20 (interim): Cohort A, 40 mg SDD (10 mg NTRX-07) QD oral, Day 7, mean ± S.D., read-out: Tmax): 48 ± 18 min
Vd/F (10 mg, Table 20 (interim): Cohort A, 40 mg SDD (10 mg NTRX-07) QD oral, Day 7, mean ± S.D., read-out: Vd/F): 1230 ± 506 L
AUC(0-t) (30 mg, Cohort B Fed, single 30 mg oral dose after high-fat meal, mean ± SD, read-out: Average of AUC24 h): 390 ± 280 ng·h/mL
Cmax (30 mg, Cohort B Fed, single 30 mg oral dose after high-fat meal, mean ± SD, read-out: Average of Cmax): 60 ± 37 ng/mL
Tmax (30 mg, Cohort B Fed, single 30 mg oral dose after high-fat meal, mean ± SD, read-out: Average of Tmax): 144 ± 108 min
Vd/F (30 mg, Cohort B Fed, single 30 mg oral dose after high-fat meal, mean ± SD, read-out: Average of Vd/F): 699 ± 424 L
AUC(0-t) (30 mg, Cohort B healthy, 30 mg QD oral, Day 1, mean ± SD, read-out: Average of AUC24 h): 328 ± 213 ng·h/mL
Cmax (30 mg, Cohort B healthy, 30 mg QD oral, Day 1, mean ± SD, read-out: Average of Cmax): 109 ± 58 ng/mL
Tmax (30 mg, Cohort B healthy, 30 mg QD oral, Day 1, mean ± SD, read-out: Average of Tmax): 54 ± 30 min
Vd/F (30 mg, Cohort B healthy, 30 mg QD oral, Day 1, mean ± SD, read-out: Average of Vd/F): 349 ± 175 L
AUC(0-t) (30 mg, Cohort B healthy, 30 mg QD oral, Day 7, mean ± SD, read-out: Average of AUC24 h): 236 ± 186 ng·h/mL
Cmax (30 mg, Cohort B healthy, 30 mg QD oral, Day 7, mean ± SD, read-out: Average of Cmax): 120 ± 79 ng/mL
Tmax (30 mg, Cohort B healthy, 30 mg QD oral, Day 7, mean ± SD, read-out: Average of Tmax): 36 ± 12 min
Vd/F (30 mg, Cohort B healthy, 30 mg QD oral, Day 7, mean ± SD, read-out: Average of Vd/F): 391 ± 235 L
AUC(0-t) (30 mg, Table 11: Cohort B, 30 mg QD oral, Day 1, mean ± S.D., read-out: AUClast): 328 ± 213 ng·h/mL
Cmax (30 mg, Table 11: Cohort B, 30 mg QD oral, Day 1, mean ± S.D., read-out: Cmax): 109 ± 58 ng/mL
Tmax (30 mg, Table 11: Cohort B, 30 mg QD oral, Day 1, mean ± S.D., read-out: Tmax): 54 ± 30 min
Vd/F (30 mg, Table 11: Cohort B, 30 mg QD oral, Day 1, mean ± S.D., read-out: Vd/F): 349 ± 175 L
Tmax (30 mg, Table 12: Cohort B, 30 mg QD oral, Day 7, individual subjects, read-out: Tmax): 30 min
AUC(0-t) (30 mg, Table 12: Cohort B, 30 mg QD oral, Day 7, mean ± S.D., read-out: AUClast): 236 ± 186 ng·h/mL
Cmax (30 mg, Table 12: Cohort B, 30 mg QD oral, Day 7, mean ± S.D., read-out: Cmax): 120 ± 79 ng/mL
Tmax (30 mg, Table 12: Cohort B, 30 mg QD oral, Day 7, mean ± S.D., read-out: Tmax): 36 ± 12 min
Vd/F (30 mg, Table 12: Cohort B, 30 mg QD oral, Day 7, mean ± S.D., read-out: Vd/F): 391 ± 234 L
AUC(0-t) (30 mg, Table 13: Cohort B Fed, 30 mg oral, fed state, mean ± S.D., read-out: AUClast): 390 ± 280 ng·h/mL
Cmax (30 mg, Table 13: Cohort B Fed, 30 mg oral, fed state, mean ± S.D., read-out: Cmax): 60 ± 37 ng/mL
Tmax (30 mg, Table 13: Cohort B Fed, 30 mg oral, fed state, mean ± S.D., read-out: Tmax): 144 ± 108 min
Vd/F (30 mg, Table 13: Cohort B Fed, 30 mg oral, fed state, mean ± S.D., read-out: Vd/F): 699 ± 424 L
AUC(0-t) (90 mg, Cohort C healthy, 90 mg QD oral, Day 1, mean ± SD, read-out: Average of AUC24 h): 1270 ± 509 ng·h/mL
Cmax (90 mg, Cohort C healthy, 90 mg QD oral, Day 1, mean ± SD, read-out: Average of Cmax): 400 ± 202 ng/mL
Tmax (90 mg, Cohort C healthy, 90 mg QD oral, Day 1, mean ± SD, read-out: Average of Tmax): 138 ± 132 min
Vd/F (90 mg, Cohort C healthy, 90 mg QD oral, Day 1, mean ± SD, read-out: Average of Vd/F): 337 ± 316 L
AUC(0-t) (90 mg, Cohort C healthy, 90 mg QD oral, Day 7, mean ± SD, read-out: Average of AUC24 h): 741 ± 357 ng·h/mL
Cmax (90 mg, Cohort C healthy, 90 mg QD oral, Day 7, mean ± SD, read-out: Average of Cmax): 189 ± 95 ng/mL
Tmax (90 mg, Cohort C healthy, 90 mg QD oral, Day 7, mean ± SD, read-out: Average of Tmax): 78 ± 60 min
AUC(0-t) (90 mg, Cohort D AD patients, 90 mg QD oral, Day 1, mean ± SD, read-out: Average of AUC24 h): 1560 ± 605 ng·h/mL
Cmax (90 mg, Cohort D AD patients, 90 mg QD oral, Day 1, mean ± SD, read-out: Average of Cmax): 478 ± 154 ng/mL
Tmax (90 mg, Cohort D AD patients, 90 mg QD oral, Day 1, mean ± SD, read-out: Average of Tmax): 66 ± 36 min
Vd/F (90 mg, Cohort D AD patients, 90 mg QD oral, Day 1, mean ± SD, read-out: Average of Vd/F): 211 ± 90 L
AUC(0-t) (90 mg, Cohort D AD patients, 90 mg QD oral, Day 7, mean ± SD, read-out: Average of AUC24 h): 806 ± 196 ng·h/mL
